Tests used:
[1] = DRUGMATRIX: Sodium/nucleoside co-transporter radioligand binding (ligand: nitrobenzylthioinosine); format: cell membranes, Cavia porcellus, Dunkin-Hartley, Cerebral cortex, Membrane; conditions: Not Active = under 50% inhibition at 10 µM
Glycine receptor = Glycine receptor (Rattus norvegicus, UniProt P22771+P24524+P07727+P20781); format: cell membranes, Wistar, Spinal cord, Membrane; also: in other assays of this panel Not Active means under 50% inhibition at 10 µM
[2] = target: Platelet-activating factor receptor (Homo sapiens, UniProt P25105); format: tissue-based; also: in other assays of this panel Not Active means under 50% inhibition at 10 µM
Sequence of Platelet-activating factor receptor (P25105 whole entry): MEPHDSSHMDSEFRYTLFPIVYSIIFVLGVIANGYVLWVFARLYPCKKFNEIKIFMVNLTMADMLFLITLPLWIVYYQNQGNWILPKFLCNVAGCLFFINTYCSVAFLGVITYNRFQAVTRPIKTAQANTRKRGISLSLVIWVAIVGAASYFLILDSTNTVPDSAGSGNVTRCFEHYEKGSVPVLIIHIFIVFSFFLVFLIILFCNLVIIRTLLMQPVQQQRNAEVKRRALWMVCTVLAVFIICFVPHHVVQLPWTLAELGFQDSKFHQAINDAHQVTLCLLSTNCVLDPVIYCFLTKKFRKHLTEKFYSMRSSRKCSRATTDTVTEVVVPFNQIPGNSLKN

Caspase-1 = target: T1, Caspase-1 (Homo sapiens, UniProt P29466); parameters: species or system Escherichia coli;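 also: Caspase-1 enzyme inhibition assay with a peptide substrate; in other assays of this panel Not Active means under 50% inhibition at 10 µM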
T1 sequence (P29466 whole entry): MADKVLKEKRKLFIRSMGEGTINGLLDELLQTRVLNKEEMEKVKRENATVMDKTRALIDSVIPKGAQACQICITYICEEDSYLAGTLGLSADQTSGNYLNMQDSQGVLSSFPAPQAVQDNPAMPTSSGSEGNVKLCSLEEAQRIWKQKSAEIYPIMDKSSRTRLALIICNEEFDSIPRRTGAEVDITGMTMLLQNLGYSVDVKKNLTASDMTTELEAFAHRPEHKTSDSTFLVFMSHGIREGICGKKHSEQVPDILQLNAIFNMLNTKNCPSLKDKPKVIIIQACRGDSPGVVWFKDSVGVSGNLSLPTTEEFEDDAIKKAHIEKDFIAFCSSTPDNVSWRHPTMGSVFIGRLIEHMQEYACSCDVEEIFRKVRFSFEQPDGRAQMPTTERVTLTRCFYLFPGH

Cathepsin G = target: T2, Cathepsin G (Homo sapiens, UniProt P08311); format: tissue-based; conditions: neutrophil;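 also: inhibition of Cathepsin G enzyme activity, tested on an AMC-conjugated peptide substrate; in other assays of this panel Not Active means under 50% inhibition at 10 µM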
T2 sequence (P08311 whole entry): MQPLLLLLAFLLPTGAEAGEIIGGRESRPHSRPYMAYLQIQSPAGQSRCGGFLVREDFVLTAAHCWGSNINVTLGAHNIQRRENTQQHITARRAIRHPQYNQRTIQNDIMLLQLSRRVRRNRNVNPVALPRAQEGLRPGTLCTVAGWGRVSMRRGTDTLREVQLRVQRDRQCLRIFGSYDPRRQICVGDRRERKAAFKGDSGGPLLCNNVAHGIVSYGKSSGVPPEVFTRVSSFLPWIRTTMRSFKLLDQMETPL

[3] = target: Protein kinase C alpha type (Homo sapiens, UniProt P17252); format: cell-based; conditions: sf9
Glucocorticoid receptor = target: T3, Glucocorticoid receptor (Homo sapiens, UniProt P04150); conditions: hela s3; also: in other assays of this panel Not Active means under 50% inhibition at 10 µM
T3 sequence (P04150 whole entry): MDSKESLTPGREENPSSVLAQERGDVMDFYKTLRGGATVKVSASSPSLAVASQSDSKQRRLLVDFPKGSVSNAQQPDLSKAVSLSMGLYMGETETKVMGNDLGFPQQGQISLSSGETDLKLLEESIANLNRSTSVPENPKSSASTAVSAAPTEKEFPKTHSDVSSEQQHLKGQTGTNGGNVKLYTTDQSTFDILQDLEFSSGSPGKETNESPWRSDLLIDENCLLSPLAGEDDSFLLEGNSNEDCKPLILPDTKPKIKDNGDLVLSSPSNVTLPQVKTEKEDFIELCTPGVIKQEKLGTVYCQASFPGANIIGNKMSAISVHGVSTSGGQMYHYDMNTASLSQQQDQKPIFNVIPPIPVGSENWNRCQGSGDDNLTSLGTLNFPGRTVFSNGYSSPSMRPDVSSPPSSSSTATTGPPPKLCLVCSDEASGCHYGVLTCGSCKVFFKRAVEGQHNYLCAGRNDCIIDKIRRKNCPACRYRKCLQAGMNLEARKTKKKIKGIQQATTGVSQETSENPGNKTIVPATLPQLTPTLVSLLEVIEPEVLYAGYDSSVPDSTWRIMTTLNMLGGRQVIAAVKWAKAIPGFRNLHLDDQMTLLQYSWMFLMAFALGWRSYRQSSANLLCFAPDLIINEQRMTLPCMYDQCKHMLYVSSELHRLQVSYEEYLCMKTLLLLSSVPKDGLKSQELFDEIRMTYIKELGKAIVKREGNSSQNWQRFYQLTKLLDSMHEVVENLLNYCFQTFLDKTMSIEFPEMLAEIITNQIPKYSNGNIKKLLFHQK

O=c1ncn2nc(Sc3ccc(F)cc3F)ccc2c1-c1c(Cl)cccc1Cl [NEFLAMAPIMOD]
Not Active: IC50 [1] | Ki [1] | IC50 (Glycine receptor) | IC50 [2] | IC50 (Caspase-1) | IC50 (Cathepsin G) | IC50 [3] | IC50 (Glucocorticoid receptor)

Nc1nc2ccc(OC(F)(F)F)cc2s1 [RILUZOLE]
Not Active: IC50 [1] | Ki [1] | IC50 (Glycine receptor) | IC50 [2] | IC50 (Caspase-1) | IC50 (Cathepsin G) | IC50 [3] | IC50 (Glucocorticoid receptor)

C=CCC1(C(C)CCC)C(=O)NC(=O)NC1=O (stereo unspecified) [SECOBARBITAL]
Not Active: IC50 [1] | Ki [1] | IC50 (Glycine receptor) | IC50 [2] | IC50 (Caspase-1) | IC50 (Cathepsin G) | IC50 [3] | IC50 (Glucocorticoid receptor)

C[C@@H]1CN(c2c(F)c(N)c3c(=O)c(C(=O)O)cn(C4CC4)c3c2F)C[C@H](C)N1 [SPARFLOXACIN]
Not Active: IC50 [1] | Ki [1] | IC50 (Glycine receptor) | IC50 [2] | IC50 (Caspase-1) | IC50 (Cathepsin G) | IC50 [3] | IC50 (Glucocorticoid receptor)

Nc1nc2nc[nH]c2c(=S)[nH]1 [THIOGUANINE]
Not Active: IC50 [1] | Ki [1] | IC50 (Glycine receptor) | IC50 [2] | IC50 (Caspase-1) | IC50 (Cathepsin G) | IC50 [3] | IC50 (Glucocorticoid receptor)

Cc1cccc(N(C)C(=S)Oc2ccc3ccccc3c2)c1 [TOLNAFTATE]
Not Active: IC50 [1] | Ki [1] | IC50 (Glycine receptor) | IC50 [2] | IC50 (Caspase-1) | IC50 (Cathepsin G) | IC50 [3] | IC50 (Glucocorticoid receptor)

N[C@@H]1[C@H]2CN(c3nc4c(cc3F)c(=O)c(C(=O)O)cn4-c3ccc(F)cc3F)C[C@@H]12 [TROVAFLOXACIN]
Not Active: IC50 [1] | Ki [1] | IC50 (Glycine receptor) | IC50 [2] | IC50 (Caspase-1) | IC50 (Cathepsin G) | IC50 [3] | IC50 (Glucocorticoid receptor)

CC[C@]1(O)C[C@H]2CN(CCc3c([nH]c4ccccc34)[C@@](C(=O)OC)(c3cc4c(cc3OC)N(C=O)[C@H]3[C@@](O)(C(=O)OC)[C@H](OC(C)=O)[C@]5(CC)C=CCN6CC[C@]43[C@@H]65)C2)C1 [VINCRISTINE]
Not Active: IC50 [1] | Ki [1] | IC50 (Glycine receptor) | IC50 [2] | IC50 (Caspase-1) | IC50 (Cathepsin G) | IC50 [3] | IC50 (Glucocorticoid receptor)

CCCOc1ccccc1-c1nc2nn[nH]c2c(=O)[nH]1 [ZAPRINAST]
Not Active: IC50 [1] | Ki [1] | IC50 (Glycine receptor) | IC50 [2] | IC50 (Caspase-1) | IC50 (Cathepsin G) | IC50 [3] | IC50 (Glucocorticoid receptor)

SODIUM NITROPRUSSIDE
Not Active: IC50 [1] | Ki [1] | IC50 (Glycine receptor) | Ki (Glycine receptor) | IC50 [2] | Ki [2] | IC50 (Caspase-1) | Ki (Caspase-1) | IC50 (Cathepsin G) | Ki (Cathepsin G) | IC50 [3] | Ki [3] | IC50 (Glucocorticoid receptor) | Ki (Glucocorticoid receptor)

Source: ChEMBL document CHEMBL1909046, “DrugMatrix in vitro pharmacology data”
